Source: the NIST ThermoML archive (doi:10.1016/j.jct.2018.04.003)

Experiment: mn = molality of the nth substance listed, in mol/kg
Conditions: 101.3 kPa, Liquid; for speed of sound: Frequency=2 MHz, Linear variable-path acoustic interferometer; for mass density: Pycnometric method

NNC(=O)c1ccncc1 [isonicotinic acid hydrazide] + O
Conditions	mass density [kg/m3]	speed of sound [m/s]
288.15 K, m1 = 0.0099	999.49	1466.6
288.15 K, m1 = 0.02	999.88	1467.3
288.15 K, m1 = 0.03	1000.26	1468
288.15 K, m1 = 0.0401	1000.64	1468.7
288.15 K, m1 = 0.0495	1001	1469.4
288.15 K, m1 = 0.055	1001.19	1469.8
288.15 K, m1 = 0.06	1001.38	1470.1
288.15 K, m1 = 0.065	1001.55	1470.5
288.15 K, m1 = 0.0708	1001.77	1470.9
288.15 K, m1 = 0.075	1001.92	1471.2
288.15 K, m1 = 0.0809	1002.12	1471.6
288.15 K, m1 = 0.0846	1002.25	1471.9
288.15 K, m1 = 0.0901	1002.45	1472.3
288.15 K, m1 = 0.0949	1002.62	1472.6
288.15 K, m1 = 0.1002	1002.81	1473
298.15 K, m1 = 0.0099	997.39	1497.4
298.15 K, m1 = 0.0197	997.69	1498.1
298.15 K, m1 = 0.0299	998.02	1498.8
298.15 K, m1 = 0.04	998.35	1499.6
298.15 K, m1 = 0.0499	998.67	1500.3
298.15 K, m1 = 0.055	998.83	1500.6
298.15 K, m1 = 0.0599	998.99	1500.9
298.15 K, m1 = 0.0649	999.15	1501.3
298.15 K, m1 = 0.0699	999.31	1501.6
298.15 K, m1 = 0.075	999.47	1502
298.15 K, m1 = 0.0797	999.61	1502.3
298.15 K, m1 = 0.085	999.78	1502.7
298.15 K, m1 = 0.0897	999.92	1503
298.15 K, m1 = 0.0949	1000.09	1503.4
298.15 K, m1 = 0.1006	1000.26	1503.8
308.15 K, m1 = 0.0099	994.3	1520.5
308.15 K, m1 = 0.0199	994.58	1521.3
308.15 K, m1 = 0.0301	994.85	1522
308.15 K, m1 = 0.04	995.12	1522.7
308.15 K, m1 = 0.0501	995.39	1523.5
308.15 K, m1 = 0.055	995.52	1523.9
308.15 K, m1 = 0.06	995.64	1524.2
308.15 K, m1 = 0.0649	995.76	1524.6
308.15 K, m1 = 0.0699	995.9	1525
308.15 K, m1 = 0.0751	996.03	1525.3
308.15 K, m1 = 0.0799	996.15	1525.7
308.15 K, m1 = 0.0851	996.28	1526.1
308.15 K, m1 = 0.09	996.41	1526.4
308.15 K, m1 = 0.095	996.53	1526.8
308.15 K, m1 = 0.1002	996.67	1527.2

[Cl-].[K+] [potassium chloride] + O
Conditions	mass density, 288.15 K [kg/m3]	mass density, 298.15 K [kg/m3]	mass density, 308.15 K [kg/m3]	speed of sound, 288.15 K [m/s]	speed of sound, 298.15 K [m/s]	speed of sound, 308.15 K [m/s]
m1 = 0.06	1002.26	1000.42	997.25	1467.4	1498.3	1522.2
m1 = 0.1	1003.48	1001.79	998.71	1469.6	1502.5	1525.1
